Reference: patent US6992079B2, “Substituted 11-phenyl-dibenzazepine compounds useful for the treatment or prevention of diseases characterized by abnormal cell proliferation” (President Fellows of Harvard College, priority 1997, dated 2006)
Like-named read-outs stand apart in the source and are kept apart here.

Legend:
Format in all cases: cell-based
MDA-MB-23 = assay: SRB antiproliferative assay; conditions: Homo sapiens; MDA-MB-23 (Breast); SRB; 5% FCS/5 day incubation; read-out: IC50
Description: (§1) The cells were passaged using Trypsin (Gibco).

MMRU = assay: SRB antiproliferative assay; conditions: Homo sapiens, MMRU (Melanoma), 5% FCS/5 day incubation
Description: as §1

RPMI-8226 = assay: In-Vitro Testing SRB panel: Leukemia
NCI-H23 = system: NCI-H23
NCI-H522 = system: NCI-H522
LOX IMVI = assay: In-Vitro Testing SRB panel: Melanoma
MALM-3M = assay: In-Vitro Testing SRB panel: Melanoma
M14 = assay: In-Vitro Testing SRB panel: Melanoma
SK-MEL-2 = assay: In-Vitro Testing SRB panel: Melanoma
SK-MEL-2B = assay: In-Vitro Testing SRB panel: Melanoma
UACC-257 = assay: In-Vitro Testing SRB panel: Melanoma
UACC-62 = assay: In-Vitro Testing SRB panel: Melanoma
IGROV1 = assay: In-Vitro Testing SRB panel: Ovarian Cancer
OVCAR-5 = assay: In-Vitro Testing SRB panel: Ovarian Cancer
A498 = assay: In-Vitro Testing SRB panel: Renal Cancer
TK-10 = assay: In-Vitro Testing SRB panel: Renal Cancer
DU-145 = assay: In-Vitro Testing SRB panel: Prostate Cancer
HS 578T = assay: In-Vitro Testing SRB panel: Breast Cancer; conditions: HS 578T
[1] = Homo sapiens, read-out: LC50 (the source's name)

COc1ccc2c(c1)CN(C(=O)c1ccc([N+](=O)[O-])cc1)c1ccc(Cl)cc1C2c1ccccc1Cl (stereo not drawn) [Compound 30]
IC50 (MDA-MB-23): 900 nM
IC50 (MMRU): 500 nM
GI50 (RPMI-8226; Homo sapiens, RPMI-8226): 953 nM
CC50 (RPMI-8226; Homo sapiens, RPMI-8226, read-out: LC50 (the source's name)): > 100 µM
TGI (RPMI-8226; RPMI-8226): >1.00E−04 Molar
Percent Growth (RPMI-8226; RPMI-8226, Log10 concentration −4.0 Molar): 36%
Percent Growth (RPMI-8226; RPMI-8226, Log10 concentration −5.0 Molar): 30%
Percent Growth (RPMI-8226; RPMI-8226, Log10 concentration −6.0 Molar): 49%
Percent Growth (RPMI-8226; RPMI-8226, Log10 concentration −7.0 Molar): 100%
Percent Growth (RPMI-8226; RPMI-8226, Log10 concentration −8.0 Molar): 86%
GI50 (NCI-H23; Homo sapiens, NCI-H23): > 100 µM
CC50 (NCI-H23; Homo sapiens, NCI-H23, read-out: LC50 (the source's name)): > 100 µM
TGI (NCI-H23; NCI-H23): >1.00E−04 Molar
Percent Growth (NCI-H23; NCI-H23, Log10 concentration −4.0 Molar): 55%
Percent Growth (NCI-H23; NCI-H23, Log10 concentration −5.0 Molar): 60%
Percent Growth (NCI-H23; NCI-H23, Log10 concentration −6.0 Molar): 84%
Percent Growth (NCI-H23; NCI-H23, Log10 concentration −7.0 Molar): 97%
Percent Growth (NCI-H23; NCI-H23, Log10 concentration −8.0 Molar): 93%
GI50 (NCI-H522; Homo sapiens, NCI-H522): 760 nM
CC50 (NCI-H522; Homo sapiens, NCI-H522, read-out: LC50 (the source's name)): > 100 µM
TGI (NCI-H522; NCI-H522): 6.10E−05 Molar
Percent Growth (NCI-H522; NCI-H522, Log10 concentration −4.0 Molar): −9%
Percent Growth (NCI-H522; NCI-H522, Log10 concentration −5.0 Molar): 19%
Percent Growth (NCI-H522; NCI-H522, Log10 concentration −6.0 Molar): 42%
Percent Growth (NCI-H522; NCI-H522, Log10 concentration −7.0 Molar): 113%
Percent Growth (NCI-H522; NCI-H522, Log10 concentration −8.0 Molar): 114%
TGI (LOX IMVI): >1.00E−04 Molar
GI50 (LOX IMVI; Homo sapiens): 4.3 µM
CC50 (LOX IMVI; [1]): > 100 µM
Percent Growth (LOX IMVI; Log10 concentration −4.0 Molar): 35%
Percent Growth (LOX IMVI; Log10 concentration −5.0 Molar): 26%
Percent Growth (LOX IMVI; Log10 concentration −6.0 Molar): 91%
Percent Growth (LOX IMVI; Log10 concentration −7.0 Molar): 103%
Percent Growth (LOX IMVI; Log10 concentration −8.0 Molar): 98%
GI50 (MALM-3M; Homo sapiens): 342 nM
CC50 (MALM-3M; Homo sapiens, MALM-3M, read-out: LC50 (the source's name)): > 100 µM
TGI (MALM-3M; MALM-3M): 8.35E−05 Molar
Percent Growth (MALM-3M; MALM-3M, Log10 concentration −4.0 Molar): −4%
Percent Growth (MALM-3M; MALM-3M, Log10 concentration −5.0 Molar): 49%
Percent Growth (MALM-3M; MALM-3M, Log10 concentration −6.0 Molar): 16%
Percent Growth (MALM-3M; MALM-3M, Log10 concentration −7.0 Molar): 82%
Percent Growth (MALM-3M; MALM-3M, Log10 concentration −8.0 Molar): 96%
GI50 (M14; Homo sapiens, M14): 45 nM
CC50 (M14; Homo sapiens, M14, read-out: LC50 (the source's name)): > 100 µM
TGI (M14; M14): >1.00E−04 Molar
Percent Growth (M14; M14, Log10 concentration −4.0 Molar): 30%
Percent Growth (M14; M14, Log10 concentration −5.0 Molar): 37%
Percent Growth (M14; M14, Log10 concentration −6.0 Molar): 75%
Percent Growth (M14; M14, Log10 concentration −7.0 Molar): 93%
Percent Growth (M14; M14, Log10 concentration −8.0 Molar): 99%
GI50 (SK-MEL-2; Homo sapiens, SK-MEL-2): > 100 µM
CC50 (SK-MEL-2; Homo sapiens, SK-MEL-2, read-out: LC50 (the source's name)): > 100 µM
TGI (SK-MEL-2; SK-MEL-2): >1.00E−04 Molar
Percent Growth (SK-MEL-2; SK-MEL-2, Log10 concentration −4.0 Molar): 71%
Percent Growth (SK-MEL-2; SK-MEL-2, Log10 concentration −5.0 Molar): 74%
Percent Growth (SK-MEL-2; SK-MEL-2, Log10 concentration −6.0 Molar): 95%
Percent Growth (SK-MEL-2; SK-MEL-2, Log10 concentration −7.0 Molar): 94%
Percent Growth (SK-MEL-2; SK-MEL-2, Log10 concentration −8.0 Molar): 102%
GI50 (SK-MEL-2B; Homo sapiens, SK-MEL-28): > 100 µM
CC50 (SK-MEL-2B; Homo sapiens, SK-MEL-28, read-out: LC50 (the source's name)): > 100 µM
TGI (SK-MEL-2B; SK-MEL-28): >1.00E−04 Molar
Percent Growth (SK-MEL-2B; SK-MEL-28, Log10 concentration −4.0 Molar): 65%
Percent Growth (SK-MEL-2B; SK-MEL-28, Log10 concentration −5.0 Molar): 70%
Percent Growth (SK-MEL-2B; SK-MEL-28, Log10 concentration −6.0 Molar): 86%
Percent Growth (SK-MEL-2B; SK-MEL-28, Log10 concentration −7.0 Molar): 100%
Percent Growth (SK-MEL-2B; SK-MEL-28, Log10 concentration −8.0 Molar): 101%
GI50 (UACC-257; Homo sapiens, UACC-257): 1860 nM
CC50 (UACC-257; Homo sapiens, UACC-257, read-out: LC50 (the source's name)): > 100 µM
TGI (UACC-257; UACC-257): >1.00E−04 Molar
Percent Growth (UACC-257; UACC-257, Log10 concentration −4.0 Molar): 13%
Percent Growth (UACC-257; UACC-257, Log10 concentration −5.0 Molar): 20%
Percent Growth (UACC-257; UACC-257, Log10 concentration −6.0 Molar): 61%
Percent Growth (UACC-257; UACC-257, Log10 concentration −7.0 Molar): 91%
Percent Growth (UACC-257; UACC-257, Log10 concentration −8.0 Molar): 99%
GI50 (UACC-62; Homo sapiens, UACC-62): > 100 µM
CC50 (UACC-62; Homo sapiens, UACC-62, read-out: LC50 (the source's name)): > 100 µM
TGI (UACC-62; UACC-62): >1.00E−04 Molar
Percent Growth (UACC-62; UACC-62, Log10 concentration −4.0 Molar): 56%
Percent Growth (UACC-62; UACC-62, Log10 concentration −5.0 Molar): 52%
Percent Growth (UACC-62; UACC-62, Log10 concentration −6.0 Molar): 58%
Percent Growth (UACC-62; UACC-62, Log10 concentration −7.0 Molar): 93%
Percent Growth (UACC-62; UACC-62, Log10 concentration −8.0 Molar): 97%
GI50 (IGROV1; Homo sapiens, IGROV-1): 6.35 µM
CC50 (IGROV1; Homo sapiens, IGROV-1, IGROV1, read-out: LC50 (the source's name)): > 100 µM
TGI (IGROV1; IGROV1): >1.00E−04 Molar
Percent Growth (IGROV1; IGROV1, Log10 concentration −4.0 Molar): 36%
Percent Growth (IGROV1; IGROV1, Log10 concentration −5.0 Molar): 41%
Percent Growth (IGROV1; IGROV1, Log10 concentration −6.0 Molar): 86%
Percent Growth (IGROV1; IGROV1, Log10 concentration −7.0 Molar): 97%
Percent Growth (IGROV1; IGROV1, Log10 concentration −8.0 Molar): 97%
GI50 (OVCAR-5; Homo sapiens, OVCAR-5): > 100 µM
CC50 (OVCAR-5; Homo sapiens, OVCAR-5, read-out: LC50 (the source's name)): > 100 µM
TGI (OVCAR-5; OVCAR-5): >1.00E−04 Molar
Percent Growth (OVCAR-5; OVCAR-5, Log10 concentration −4.0 Molar): 78%
Percent Growth (OVCAR-5; OVCAR-5, Log10 concentration −5.0 Molar): 86%
Percent Growth (OVCAR-5; OVCAR-5, Log10 concentration −6.0 Molar): 98%
Percent Growth (OVCAR-5; OVCAR-5, Log10 concentration −7.0 Molar): 106%
Percent Growth (OVCAR-5; OVCAR-5, Log10 concentration −8.0 Molar): 102%
TGI (A498; A498): >1.00E−04 Molar
Percent Growth (A498; A498, Log10 concentration −4.0 Molar): 54%
Percent Growth (A498; A498, Log10 concentration −5.0 Molar): 64%
Percent Growth (A498; A498, Log10 concentration −6.0 Molar): 87%
Percent Growth (A498; A498, Log10 concentration −7.0 Molar): 102%
Percent Growth (A498; A498, Log10 concentration −8.0 Molar): 95%
GI50 (A498; Homo sapiens, A498): > 100 µM
CC50 (A498; Homo sapiens, A498, read-out: LC50 (the source's name)): > 100 µM
GI50 (TK-10; Homo sapiens, TK-10): 27 µM
CC50 (TK-10; Homo sapiens, TK-10, read-out: LC50 (the source's name)): > 100 µM
TGI (TK-10; TK-10): >1.00E−04 Molar
Percent Growth (TK-10; TK-10, Log10 concentration −4.0 Molar): 41%
Percent Growth (TK-10; TK-10, Log10 concentration −5.0 Molar): 57%
Percent Growth (TK-10; TK-10, Log10 concentration −6.0 Molar): 93%
Percent Growth (TK-10; TK-10, Log10 concentration −7.0 Molar): 101%
Percent Growth (TK-10; TK-10, Log10 concentration −8.0 Molar): 100%
TGI (DU-145; DU-145): >1.00E−04 Molar
Percent Growth (DU-145; DU-145, Log10 concentration −4.0 Molar): 31%
Percent Growth (DU-145; DU-145, Log10 concentration −5.0 Molar): 38%
Percent Growth (DU-145; DU-145, Log10 concentration −6.0 Molar): 95%
Percent Growth (DU-145; DU-145, Log10 concentration −7.0 Molar): 98%
Percent Growth (DU-145; DU-145, Log10 concentration −8.0 Molar): 98%
GI50 (DU-145; Homo sapiens, DU-145): 6.24 µM
CC50 (DU-145; Homo sapiens, DU-145, read-out: LC50 (the source's name)): > 100 µM
TGI (HS 578T): >1.00E−04 Molar
Percent Growth (HS 578T; Log10 concentration −4.0 Molar): 11%
Percent Growth (HS 578T; Log10 concentration −5.0 Molar): 51%
Percent Growth (HS 578T; Log10 concentration −6.0 Molar): 30%
Percent Growth (HS 578T; Log10 concentration −7.0 Molar): 91%
Percent Growth (HS 578T; Log10 concentration −8.0 Molar): 87%
CC50 (HS 578T; [1]): > 100 µM
